Source: patent US9617251B2, “Indanylaminopyridylcyclopropanecarboxylic acids, pharmaceutical compositions and uses thereof” (BOEHRINGER INGELHEIM INTERNATIONAL GMBH, priority 2015, dated 2017)
Converted amounts (≈) assume the structure as drawn.

Tests used:
human GPR40 receptor = human GPR40 receptor (Homo sapiens, UniProt O14842); assay: IP1 accumulation measurements using the IPOne assay system (1321N1 cells stably expressing human GPR40 receptor); type: cell-based; conditions: 1321N1 cells expressing human GPR40, 1 h stimulation at 37° C.
Chain of human GPR40 receptor (O14842 whole entry): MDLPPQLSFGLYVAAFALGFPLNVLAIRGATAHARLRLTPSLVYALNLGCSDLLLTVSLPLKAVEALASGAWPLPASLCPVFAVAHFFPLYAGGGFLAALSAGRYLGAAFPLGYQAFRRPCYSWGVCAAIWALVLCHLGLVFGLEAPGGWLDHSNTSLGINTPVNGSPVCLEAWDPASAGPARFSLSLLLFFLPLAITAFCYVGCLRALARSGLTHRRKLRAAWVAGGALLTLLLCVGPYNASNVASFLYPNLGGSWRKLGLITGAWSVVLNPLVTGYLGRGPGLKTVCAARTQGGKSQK
Experimental: IP1 accumulation measurements using the IPOne assay system—1321N1 cells stably expressing human GPR40 receptor (Euroscreen, Belgium) are seeded 24 h before the assay in white 384-well plates in culture medium containing 10% FCS, 1% Na-Pyruvate and 400 μg/mL G418. IP1 is assayed according to the manufacturer's description (Cisbio Bioassays, France). In brief, the assay is started by substitution of the culture medium by stimulation buffer (Hepes 10 mM, CaCl2 1 mM, MgCl2 0.5 mM, KCl 4.2 mM, NaCl 146 mM, glucose 5.5 mM and LiCl 50 mM, pH 7.4). Cells are stimulated for 1 h at 37° C., 5% CO2 by addition of the compounds that are diluted in stimulation buffer containing LiCl. Assays are stopped by adding HTRF-conjugates (IP1-d2 and Anti-IP1 cryptate Tb) and lysis buffer, provided by the manufacturer. After an incubation time of 1 h at room temperature plates are measured using an EnVision™, Perkin Elmer. The obtained fluorescence ratios at 665/615 […] are then used to calculate the pEC50 values using Assay Explorer 3.3 Software (Accelrys, Inc.) by interpolation using an IP1 reference curve and subsequent sigmoidal curve fitting allowing for a variable hill slope.

[1] = biological target: T1, cytochrome P450 2C8-isoenzyme (Homo sapiens, UniProt P10632); assay: Inhibition of CYP-2C8 (deethylation of amodiaquine, human liver microsomes); type: in vitro ADME; conditions: CYP-2C8, human liver microsomes, amodiaquine 1 μM, 37° C.
T1 construct: from tissue; host or cells: human liver microsomes
T1 sequence (P10632 1-490): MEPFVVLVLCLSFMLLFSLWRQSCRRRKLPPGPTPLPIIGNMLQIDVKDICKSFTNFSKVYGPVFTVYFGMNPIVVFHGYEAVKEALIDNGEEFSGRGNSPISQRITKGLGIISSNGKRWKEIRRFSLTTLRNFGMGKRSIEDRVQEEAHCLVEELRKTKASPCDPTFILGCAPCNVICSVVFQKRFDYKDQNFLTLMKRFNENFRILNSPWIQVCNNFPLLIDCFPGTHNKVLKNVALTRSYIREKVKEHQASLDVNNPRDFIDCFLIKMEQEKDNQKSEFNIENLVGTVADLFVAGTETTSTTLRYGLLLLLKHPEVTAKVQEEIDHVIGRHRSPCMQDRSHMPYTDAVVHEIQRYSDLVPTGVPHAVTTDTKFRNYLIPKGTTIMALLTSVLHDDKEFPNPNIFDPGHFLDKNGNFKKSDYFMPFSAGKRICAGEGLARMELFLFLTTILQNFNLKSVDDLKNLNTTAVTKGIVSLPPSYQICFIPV
Experimental: The inhibition of cytochrome P450 2C8-isoenzyme catalyzed deethylation of amodiaquine by the test compound is assayed at 37° C. with human liver microsomes. All assays are carried out on a robotic system in 96 well plates. The final incubation volume contains TRIS buffer (0.1 M), MgCl2 (5 mM), human liver microsomes (0.05 mg/mL), amodiaquine (1 μM) and the test compound at five different concentrations or no compound (high control) in duplicate (e.g. highest concentration 10-50 μM with subsequent serial 1:4 dilutions). Following a short preincubation period, reactions are started with the cofactor (NADPH, 1 mM) and stopped by cooling the incubation down to 8° C. and subsequently by addition of one volume of acetonitrile. An internal standard solution—the stable isotope d5-desethylamodiaquine—is added after quenching of incubations. Peak area analyte (=metabolite formed) and internal standard is determined by LC-MS/MS. The resulting peak area ratio analyte to internal standard in these incubations is compared to a control activity containing no test compound. Within each of the assay runs, the IC50 of a positive control inhibitor (Montelukast) is determined. Experimental IC50 values are calculated by least square regression according to the following equation: % control activity=(100% control activity/(1+(I/IC50)S))−B with I=inhibitor concentration; S=slope factor; B=background activity (lower plateau of the inhibition curve)
(§1) If the inhibition of the reaction is already >50% at the lowest concentration of the test compound, the IC50 is assigned “<lowest concentration tested” (usually <0.4 μM). If the inhibition of the reaction is still <50% at the highest concentration of the test compound, the IC50 is assigned “>highest concentration tested” (usually >50 μM).

[2] = biological target: T2, cytochrome P450 2C9-isoenzyme (Homo sapiens, UniProt P11712); assay: Inhibition of CYP-2C9 (hydroxylation of diclofenac, human liver microsomes); type: in vitro ADME; conditions: CYP-2C9, human liver microsomes, diclofenac 10 μM, 37° C.
T2 construct: from tissue; host or cells: human liver microsomes
T2 sequence (P11712 whole entry): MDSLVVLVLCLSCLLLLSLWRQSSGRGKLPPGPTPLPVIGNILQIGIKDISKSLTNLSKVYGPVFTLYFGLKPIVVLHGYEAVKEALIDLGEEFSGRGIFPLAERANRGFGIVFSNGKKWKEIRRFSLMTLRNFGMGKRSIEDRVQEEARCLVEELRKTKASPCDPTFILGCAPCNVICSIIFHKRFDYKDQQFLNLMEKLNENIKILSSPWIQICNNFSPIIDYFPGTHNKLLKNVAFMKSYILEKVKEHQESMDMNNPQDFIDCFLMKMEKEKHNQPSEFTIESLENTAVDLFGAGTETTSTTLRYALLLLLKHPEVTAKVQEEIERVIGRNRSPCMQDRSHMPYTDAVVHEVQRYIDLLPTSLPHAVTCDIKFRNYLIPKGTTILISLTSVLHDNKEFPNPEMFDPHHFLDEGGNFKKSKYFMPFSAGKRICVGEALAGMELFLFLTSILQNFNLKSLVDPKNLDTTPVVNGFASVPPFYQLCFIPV
Experimental: The inhibition of cytochrome P450 2C9-isoenzyme catalyzed hydroxylation of diclofenac by the test compound is assayed at 37° C. with human liver microsomes. All assays are carried out on a robotic system in 96 well plates. The final incubation volume contains TRIS buffer (0.1 M), MgCl2 (5 mM), human liver microsomes (0.1 mg/mL), diclofenac (10 μM) and the test compound at five different concentrations or no compound (high control) in duplicate (e.g., highest concentration 10-50 μM with subsequent serial 1:4 dilutions). Following a short preincubation period, reactions are started with the cofactor (NADPH, 1 mM) and stopped by cooling the incubation down to 8° C. and subsequently by addition of one volume of acetonitrile. An internal standard solution—the stable isotope ^13C6-hydroxydiclofenac—is added after quenching of incubations. Peak area analyte (=metabolite formed) and internal standard is determined by LC-MS/MS. The resulting peak area ratio analyte to internal standard in these incubations is compared to a control activity containing no test compound. Within each of the assay runs, the IC50 of a positive control inhibitor (sulfaphenazole) is determined. Experimental IC50 values are calculated by least square regression according to the following equation: % control activity=(100% control activity/(1+(I/IC50)S))−B with I=inhibitor concentration; S=slope factor; B=background activity (lower plateau of the inhibition curve)
as §1

[3] = Aqueous solubility in buffer vs acetonitrile/water (1/1), LC-UV; type: physicochemical; conditions: kinetic from dmso stock, buffer pH 2.2, 24 h shaking, 2.5% DMSO
Experimental: The aqueous solubility of the compounds of the invention is determined by comparing the amount dissolved in buffer to the amount in an acetonitrile/water (1/1) solution. Starting from a 10 mM DMSO stock solution aliquots are diluted with acetonitrile/water (1/1) or buffer, respectively. After 24 h of shaking, the solutions are filtrated and analyzed by LC-UV. The amount dissolved in buffer is compared to the amount in the acetonitrile solution.
Solubility is usually being measured from 0.001 to 0.125 mg/mL at a DMSO concentration of 2.5%. If more than 90% of the compound is dissolved in buffer, the value is marked with “>”.

Row | Structure (SMILES) | EC50 (human GPR40 receptor) | IC50 [1] | IC50 [2] | solubility at 24 h [3]
1 | Cc1cc(-c2nnn(C)n2)cc(C)c1-c1cccc2c1CC[C@H]2Nc1ccc(C2C[C@@H]2C(=O)O)cn1 (mixture of isomers) [Example 5, trans-2-(6-{(R)-4-[2,6-Dimethyl-4-(2-methyl-2H-tetrazol-5-yl)-phenyl]-indan-1-ylamino}-pyridin-3-yl)-cyclopropanecarboxylic acid] | 0.016 µM | 12 µM | 48 µM | 
2 | Cc1cc(OCCC(C)(C)O)cc(C)c1-c1cccc2c1CC[C@H]2Nc1ccc(C2C[C@@H]2C(=O)O)cn1 (mixture of isomers) [Example 6, trans-2-(6-{(R)-4-[4-(3-Hydroxy-3-methyl-butoxy)-2,6-dimethyl-phenyl]-indan-1-ylamino}-pyridin-3-yl)-cyclopropanecarboxylic acid] | 0.019 µM | > 50 µM | > 50 µM | 
3 | Cc1cc(-c2nnn(C)n2)cc(C)c1-c1ccc(F)c2c1CC[C@H]2Nc1ccc(C2C[C@@H]2C(=O)O)cn1 (mixture of isomers) [Example 7, trans-2-(6-{(R)-4-[2,6-Dimethyl-4-(2-methyl-2H-tetrazol-5-yl)-phenyl]-7-fluoro-indan-1-ylamino}-pyridin-3-yl)-cyclopropanecarboxylic acid] | 0.019 µM | 38 µM | > 50 µM | 
4 | Cc1cc(OCCC(C)(C)O)cc(C)c1-c1ccc(F)c2c1CC[C@H]2Nc1ccc(C2C[C@@H]2C(=O)O)cn1 (mixture of isomers) [Example 8, trans-2-(6-{(R)-7-Fluoro-4-[4-(3-hydroxy-3-methyl-butoxy)-2,6-dimethyl-phenyl]-indan-1-ylamino}-pyridin-3-yl)-cyclopropanecarboxylic acid] | 0.016 µM | > 50 µM | > 50 µM | 
5 | Cc1cc(-c2nnn(C)n2)cc(C)c1-c1ccc(F)c2c1CC[C@H]2Nc1ccc([C@H]2C[C@@H]2C(=O)O)cn1 [Example 3, (1S,2S)-2-(6-{(R)-4-[2,6-Dimethyl-4-(2-methyl-2H-tetrazol-5-yl)-phenyl]-7-fluoro-indan-1-ylamino}-pyridin-3-yl)-cyclopropanecarboxylic acid] | 0.004 µM | 19 µM | > 50 µM | 0.091 mg/mL (≈ 183 µM)
6 | Cc1cc(-c2nnn(C)n2)cc(C)c1-c1cccc2c1CC[C@H]2Nc1ccc([C@@H]2C[C@H]2C(=O)O)cn1 [Example 9, (1R,2R)-2-(6-{(R)-4-[2,6-Dimethyl-4-(2-methyl-2H-tetrazol-5-yl)-phenyl]-indan-1-ylamino}-pyridin-3-yl)-cyclopropanecarboxylic acid] | 0.259 µM |  |  | 
7 | Cc1cc(OCCC(C)(C)O)cc(C)c1-c1cccc2c1CC[C@H]2Nc1ccc([C@@H]2C[C@H]2C(=O)O)cn1 [Example 10, (1R,2R)-2-(6-{(R)-4-[4-(3-Hydroxy-3-methyl-butoxy)-2,6-dimethyl-phenyl]-indan-1-ylamino}-pyridin-3-yl)-cyclopropanecarboxylic acid] | 0.497 µM |  |  | 
8 | Cc1cc(OCCC(C)(C)O)cc(C)c1-c1ccc(F)c2c1CC[C@H]2Nc1ccc([C@@H]2C[C@H]2C(=O)O)cn1 [Example 12, (1R,2R)-2-(6-{(R)-7-Fluoro-4-[4-(3-hydroxy-3-methyl-butoxy)-2,6-dimethyl-phenyl]-indan-1-ylamino}-pyridin-3-yl)-cyclopropanecarboxylic acid] | 0.568 µM |  |  | 
9 | Cc1cc(O[C@H]2CCOC2)cc(C)c1-c1ccc(F)c2c1CC[C@H]2Nc1ccc([C@H]2C[C@@H]2C(=O)O)cn1 [Example 13] | 0.027 µM | 49 µM | > 50 µM | 0.115 mg/mL (≈ 229 µM)
10 | Cc1cc(-c2nnn(CC(C)(C)O)n2)cc(C)c1-c1ccc(F)c2c1CC[C@H]2Nc1ccc([C@H]2C[C@@H]2C(=O)O)cn1 [Example 14] | 0.004 µM | 45 µM | > 50 µM | 0.083 mg/mL (≈ 149 µM)
11 | Cc1cc(OC2CCOCC2)cc(C)c1-c1ccc(F)c2c1CC[C@H]2Nc1ccc([C@H]2C[C@@H]2C(=O)O)cn1 [Example 15] | 0.018 µM | 26 µM | > 50 µM | 
12 | Cc1cc(C(=O)O)cc(C)c1-c1ccc(F)c2c1CC[C@H]2Nc1ccc([C@H]2C[C@@H]2C(=O)O)cn1 [Example 40] | 0.94 µM | > 50 µM | > 50 µM | 
13 | Cc1cc(OCC2(O)CCS(=O)(=O)CC2)cc(C)c1-c1ccc(F)c2c1CC[C@H]2Nc1ccc([C@H]2C[C@@H]2C(=O)O)cn1 [Example 64] | 0.029 µM | > 50 µM | > 50 µM | 
14 | Cc1cc(OC2CCOCC2)cc(C)c1-c1cccc2c1CC[C@H]2Nc1ccc([C@H]2C[C@@H]2C(=O)O)cn1 [Example 77] | 0.02 µM |  |  | 
15 | Cc1cc(OCC(C)(C)O)cc(C)c1-c1cccc2c1CC[C@H]2Nc1ccc([C@H]2C[C@@H]2C(=O)O)cn1 [Example 79] | 0.023 µM |  |  | 
16 | Cc1cc(OCC(C)(C)C#N)cc(C)c1-c1cccc2c1CC[C@H]2Nc1ccc([C@H]2C[C@@H]2C(=O)O)cn1 [Example 80] | 0.022 µM |  |  | 
17 | Cc1cc(-c2ccn(C)c(=O)c2)cc(C)c1-c1cccc2c1CC[C@H]2Nc1ccc([C@H]2C[C@@H]2C(=O)O)cn1 [Example 81] | 0.008 µM |  |  | 
18 | Cc1cc(-c2ccc(=O)n(C)c2)cc(C)c1-c1cccc2c1CC[C@H]2Nc1ccc([C@H]2C[C@@H]2C(=O)O)cn1 [Example 82] | 0.018 µM |  |  | 
19 | Cc1cc(-c2cc(=O)n(C)cn2)cc(C)c1-c1cccc2c1CC[C@H]2Nc1ccc([C@H]2C[C@@H]2C(=O)O)cn1 [Example 83] | 0.008 µM |  |  | 
20 | COc1cc(F)c(-c2cccc3c2CC[C@H]3Nc2ccc([C@H]3C[C@@H]3C(=O)O)cn2)c(F)c1 [Example 84] | 0.212 µM |  |  | 
21 | O=C(O)[C@H]1C[C@@H]1c1ccc(N[C@@H]2CCc3c(-c4ccccc4C(F)(F)F)cccc32)nc1 [Example 85] | 0.091 µM |  |  | 
22 | Cc1cc(C(=O)N(C)C)cc(C)c1-c1cccc2c1CC[C@H]2Nc1ccc([C@H]2C[C@@H]2C(=O)O)cn1 [Example 86] | 0.174 µM |  |  | 
